Laboratory results published in patent US20230137491A1, “PEPTIDES AND USES THEREOF” (SINTICA BIOTECH SOCIETÀ A RESPONSABILITÀ LIMITATA …, priority 2020, published 2023).
Non-standard residues stand in square brackets, D forms with d. methoxy‑PEG 20 kDa = linear 20 kDa methoxy-PEG conjugated through D-Cys sulfur

Columns and labels:
[1] = tested on: melanoma cells derived from patient with BRAF mutation in zebrafish; experiment: Zebrafish xenotransplant with melanoma cells from a patient with BRAF mutation; assay type: in vivo; settings: embryos with metastasis counted 5 days post injection, versus control
Experimental: FIG. 11. The peptide reduces initial metastasis formation in zebrafish injected with melanoma cells. Metastatic melanoma cells from a patient with BRAF mutation were treated with the peptide, DTIC, the peptide in combination with DTIC, DTIC alone, BRAF inhibitor or left untreated. They were stained with Vibrant Cell Labelling Solution (red) and injected into the yolk of transparent zebrafish larvae and monitored. The number of embryos with metastasis was counted at 5 days post injection.
The use of melanoma biopsies was approved by the ethical committee (Comitato Etico dell'Area Vasta Emilia Nord). Biopsies were taken from the University Hospital Policlinico of Modena and patient gave inform consent. […]
Zebrafish handling was performed at the Zebrafish Centre of the University of Padova, Italy, under ethical committee (OPBA) authorization 407/2015-PR. […] Zebrafishes were monitored daily and documented from 1 day post injection (dpi) up to 1 week (experimental endpoint). […]
For xenotransplantation, albino embryos were mechanically dechorionated at 2 days post-fertilisation, anesthetized with tricaine 0.16 mg/ml and placed along plastic lanes immersed in 2% methylcellulose/PBS. […] Stained cells were loaded in a glass capillary needle and microinjected into the yolk (about 50 cells/embryo), Xenotransplanted embryos were monitored daily and documented from one day post injection up to one week.

[2] = tested on: melanoma cell lines (WM115, WM266-4, SKmel28, WM793B, 1205Lu); experiment: MTT assay in melanoma cell lines; assay type: cell-based, human
Experimental: (§1) 5×10^3 cells/well were seeded in 96-well culture plates. At different time points, cells were incubated with 0.5% MTT (3-(4,5-dimethylthiazol-2-yl)-2,5-diphenyltetrazolium bromide) for 4 h at 37° C. and then dissolved with 100 μl Isopropanol with 0.04N HCl. The plate was read at 560 nm with a reference filter of 650 nm. Results are expressed as viability percentage, as compared to control.
Five melanoma cell lines were used for testing the efficacy of XYZ or its non-PEGylated peptide component: WM115 and WM266-4, which are respectively the primary and metastatic melanoma derived from the same patient and expressing high levels of CD271, and SKme128, a metastatic melanoma cell line expressing low levels of CD271, WM793B, a primary melanoma, and 1205Lu derived from lung metastatic melanoma. The viability of the cell culture is assessed by MTT conversion. MTT solution is applied to the plates and placed into a cell culture incubator for 4 hours. The blue formazan metabolite produced by viable cells is then extracted into isopropanol and absorbance is measured at 570 nm using a spectrophotometer.

[3] = tested on: SKMel28 melanoma cell lines overexpressing CD271; experiment: MTT assay in cells overexpressing CD271 (CD271 viral vector); assay type: cell-based, human; settings: SKMel28 with CD271 viral vector
From the text: FIG. 6. The peptide reduces melanoma cell viability through CD271. WM115 melanoma cell line was transiently transfected with CD271 siRNA, as shwon by western blotting. MTT assay was used to measure cell viability after treatment with the peptide (XYZ) or the diluent in siRNA and scramble cells. SKme128 melanoma cell line was transiently transfected with CD271 mRNA, as shown by western blotting. MTT assay was used to measure cell viability after treatment with the peptide (XYZ) or the diluent in siRNA and scramble cells. Student's t-test was used for comparison of the means.
as §1
Skme128 cell line was plated according to the liquid overlay method. After 24 h, cells were transduced by infection with viral supernatant generated by CD271-LNSN packaging cells or by LNSN packaging cells (kindly provided from F. Mavilio) in appropriate medium for melanoma, as described previously in the presence of polybrene (8 μg/ml). 48 h after infection cells were lysed for WB analysis or seeded for MTT assay.

Ac-DMet-DLeu-Gly-DIle-DIle-DAla-Gly-DLys-DAsn-DSer-Gly-DCys-NH2 with a linear 20 kDa methoxy-PEG polymer conjugated to the D-Cys residue through the sulfur atom of the latter (Ac-[dM][dL]G[dI][dI][dA]G[dK][dN][dS]G[dC](methoxy‑PEG 20 kDa)-NH2) [XYZ]
metastasis formation in zebrafish [1]: reduces metastasis formation
cell proliferation (MTT assay), dose dependence ([2]; WM115, WM266-4 and SKmel28, different doses and time points): diminishes cell proliferation, as shown by MTT assay, in a dose-dependent manner
cell proliferation (MTT assay) ([2]; five melanoma cell lines, 48 h and 96 h after treatment, no significant difference between PEGylated and non-PEGylated form): reduce cell proliferation
cell death (MTT assay) in CD271-overexpressing cells [3]: induces cell death to a greater extent
